This is an account of results in patent publication US20240174690A1, “ANNULATED 2-AMINO-3-CYANO THIOPHENES AND DERIVATIVES FOR THE TREATMENT OF CANCER” (BOEHRINGER INGELHEIM INTERNATIONAL GMBH, priority 2021, published 2024).

Each structure is given as a SMILES string. Where only a bound is given, the exact number is not on record here.

In one assay the target is KRAS (G13D)::SOS1 (Homo sapiens (Human), UniProt P01116, C118S/G13D). As to the kind of experiment: KRAS::SOS1 AlphaScreen binding assay, KRAS G13D. The text has this:
(§1) This assay can be used to examine the potency with which compounds according to the invention binding to (mutated) KRAS inhibit the protein-protein interaction between SOS1 and (mutated) KRAS e.g., KRAS WT, KRAS G12C, KRAS G12D, KRAS G12V, KRAS G13D. […] Low IC50 values in this assay setting are indicative of strong inhibition of protein-protein interaction between SOS1 and KRAS:
(§2) These assays measure the inhibitory effect of compounds on KRAS mutant protein-protein interactions using the Alpha Screen technology by Perkin Elmer.
(§3) The following (mutant) enzyme forms of KRAS and interacting proteins are used in these assays at the given concentrations: • KRAS (G12D) 1-169, N-terminal 6His-tag, C-terminal avi-tag (Xtal BioStructures, Inc.); final assay concentration 10 nM and SOS1 564-1049, N-terminal 229 GST-tag, TEV cleavage site (Viva Biotech Ltd); final assay concentration 5 nM; • KRAS (G12C) 1-169, N-terminal 6His-tag for purification, cleaved off, C-terminal avi-tag, biotinylated, mutations: C51S, C80L, C118S (in house); final assay concentration 7.5 nM and SOS1 564-1049, N-terminal 229 GST-tag, TEV cleavage site (Viva Biotech Ltd); final assay concentration 5 nM; • KRAS (G12V) 1-169, N-terminal 6His-tag for purification, cleaved off, C-terminal avi-tag, biotinylated, TEV cleavage site, mutation: C118S, GDP loaded (in house); final assay concentration 10 nM and SOS1 564-1049, N-terminal 229 GST-tag, TEV cleavage site (Viva Biotech Ltd); final assay concentration 10 nM; • KRAS (G13D) 1-169, N-terminal 6His-tag for purification, cleaved off, C-terminal avi-tag, biotinylated, TEV cleavage site, mutation: C118S, GDP loaded (in house); final assay concentration 10 nM and SOS1 564-1049, N-terminal 229 GST-tag, TEV cleavage site (Viva Biotech Ltd); final assay concentration 10 nM; • KRAS (WT) 1-169, N-terminal 6His-tag for purification, cleaved off, C-terminal avi-tag, biotinylated, TEV cleavage site, mutation: C118S, GDP loaded (in house); final assay concentration 10 nM and SOS1 564-1049, N-terminal 229 GST-tag, TEV cleavage site (Viva Biotech Ltd); final assay concentration 10 nM.
(§4) Test compounds dissolved in DMSO are dispensed onto assay plates (Proxiplate 384 PLUS, white, PerkinElmer; 6008289) using an Access Labcyte Workstation with the Labcyte Echo 55×. For the chosen highest assay concentration of 100 μM, 150 nL of compound solution are transferred from a 10 mM DMSO compound stock solution. A series of eleven fivefold dilutions per compound are transferred to the assay plate, compound dilutions are tested in duplicates. DMSO are added as backfill to a total volume of 150 nL.
(§5) The assays run on a fully automated robotic system in a darkened room below 100 Lux. To 150 nl of compound dilution 10 μl of a mix including KRAS mutant protein, SOS1 (final assay concentrations see above) and GDP nucleotide (Sigma G7127; final assay concentration 10 μM) in assay buffer (1×PBS, 0.1% BSA, 0.05% Tween 20) are added into columns 1-24.
(§6) After 30 minutes incubation time 5 μl of Alpha Screen bead mix in assay buffer are added into columns 1-23. Bead mix consists of AlphaLISA Glutathione Acceptor Beads (PerkinElmer, Cat No AL109) and AlphaScreen Streptavidin Donor Beads (PerkinElmer Cat No 6760002) in assay buffer at a final assay concentration of 10 μg/ml each.
(§7) Plates are kept at room temperature in a darkened incubator. After an additional 60 minutes incubation time the signal is measured in a PerkinElmer Envision HTS Multilabel Reader using the AlphaScreen specs from PerkinElmer.
(§8) Each plate contains up to 16 wells of a negative control depending on the dilution procedure (platewise or serial) (DMSO instead of test compound; with KRAS mutant::SOS1 GDP mix and bead mix; column 23) and 16 wells of a positive control (DMSO instead of test compound; with KRAS mutant::SOS1 GDP mix w/o bead mix; column 24).
(§9) As internal control known inhibitors of KRAS mutant::SOS1 interaction can be measured on each compound plate. […]
A general note: Alpha assays give light when donor and acceptor beads are brought close together.

The test system of another assay is A375 cells. As to the kind of experiment: A375 CTG proliferation assay (120 h) (melanoma, wt, B-Raf mutant, negative control). It counts as cell-based. Particulars: Homo sapiens, A-375, CTG 120 h. The protocol:
A375 CTG Proliferation Assay (120 h) (Melanoma, Wt, B-Raf Mutant, Negative Control)
A375 cells (ATCC CRL-1619) are dispensed into 384-well plates, flat and clear bottom (Greiner, PNr. 781091) at a density of 300 cells per well in 60 μL DMEM (Sigma 06429)+10% Fetal Calf Serum (HyClone, PNr.: SH30084.03) and incubated at 37° C. in a CO2 incubator overnight. The next day, compounds (10 mM stock in DMSO) are added at logarithmic dose series using the HP Digital Dispenser D300 (Tecan), including DMSO controls. Plates are incubated for 120 h, and cell viability is measured using CellTiter-Glo luminescent cell viability reagent (Promega product code G7570). Viability (stated as percent of control) is defined as relative luminescence units RLU of each well divided by the RLU of cells in DMSO controls. IC50 values are determined from viability measurements by non-linear regression using a four-parameter model.

For another assay, the target named is KRAS (G12V)::SOS1 (Homo sapiens (Human), UniProt P01116, C118S/G12V). As to the kind of experiment: KRAS::SOS1 AlphaScreen binding assay, KRAS G12V.
Excerpt: as §1, §2, §3, §4, §5, §6, §7, §8, §9

KRAS (G12V)::SOS1, sequence (P01116 other isoform, or with tags, fused parts or gaps G12V/C118S): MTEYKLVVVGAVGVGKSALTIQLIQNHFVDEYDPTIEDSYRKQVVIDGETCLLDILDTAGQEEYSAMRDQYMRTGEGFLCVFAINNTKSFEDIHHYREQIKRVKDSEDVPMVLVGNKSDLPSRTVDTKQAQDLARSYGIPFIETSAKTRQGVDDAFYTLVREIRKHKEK
KRAS (G13D)::SOS1, sequence (P01116 other isoform, or with tags, fused parts or gaps G13D/C118S): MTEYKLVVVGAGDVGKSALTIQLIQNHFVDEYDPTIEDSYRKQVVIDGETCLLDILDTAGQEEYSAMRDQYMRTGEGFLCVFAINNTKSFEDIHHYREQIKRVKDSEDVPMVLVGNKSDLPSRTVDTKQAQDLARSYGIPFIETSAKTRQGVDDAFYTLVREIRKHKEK

On to `C[C@H](Oc1cc(N2CCOC3(COC3)C2)nc(-c2noc3c2CCC[C@@]32CCCc3sc(N)c(C#N)c32)n1)[C@@H]1CCCN1C` [II-77], for which the IC50 on KRAS (G13D)::SOS1 was 8 nM; with A375 cells, over 3000 nM.
For the molecule `C[C@H](Oc1cc(N2CCc3cccnc32)nc(-c2noc3c2CCC[C@@]32CCCc3sc(N)c(C#N)c32)n1)[C@@H]1CCCN1C` [II-90], on KRAS (G12V)::SOS1, the IC50 worked out at 8 nM.
At KRAS (G12V)::SOS1, `C[C@H](Oc1cc(-c2ccccn2)nc(-c2noc3c2CCC[C@@]32CCCc3sc(N)c(C#N)c32)n1)[C@@H]1CCCN1C` [II-85] displayed an IC50 of 2 nM.
In the case of `C[C@H](Oc1cc(-n2cc(-c3cccnc3)nn2)nc(-c2noc3c2CCC[C@@]32CCCc3sc(N)c(C#N)c32)n1)[C@@H]1CCCN1C` [II-123], the IC50 in the assay on A375 cells came out at 259 nM.
Consider `C[C@H](Oc1cc(-c2cncnc2)nc(-c2noc3c2CCC[C@@]32CCCc3sc(N)c(C#N)c32)n1)[C@@H]1CCCN1C` [II-82], for which, at KRAS (G12V)::SOS1, the IC50 was determined as 9 nM.
Molecule `C[C@H](Oc1cc(-c2ccn(C)n2)nc(-c2noc3c2CCC[C@@]32CCCc3sc(N)c(C#N)c32)n1)[C@@H]1CCCN1C` [II-96] gave an IC50 at KRAS (G12V)::SOS1 of 2 nM.
The molecule `C[C@H](Oc1cc(-n2ccc(Br)n2)nc(-c2noc3c2CCC[C@@]32CCCc3sc(N)c(C#N)c32)n1)[C@@H]1CCCN1C` [II-110] had an IC50 on KRAS (G12V)::SOS1 of 3 nM.
Turning to `C[C@H](Oc1cc(C2CCOCC2)nc(-c2noc3c2CCC[C@@]32CCCc3sc(N)c(C#N)c32)n1)[C@@H]1CCCN1C` [II-76], the IC50 on KRAS (G13D)::SOS1 was determined as 41 nM.
The same measure, in the same setting: for `C[C@H](Oc1cc(-n2ccncc2=O)nc(-c2noc3c2CCC[C@@]32CCCc3sc(N)c(C#N)c32)n1)[C@@H]1CCCN1C` [II-116] the value was 17 nM.
The molecule `C[C@H](Oc1cc(N2CCCC3(COC3)C2)nc(-c2noc3c2CCC[C@@]32CCCc3sc(N)c(C#N)c32)n1)[C@@H]1CCCN1C` [II-72] returned an IC50 at KRAS (G13D)::SOS1 of 9 nM.
The molecule `C[C@H](Oc1cc(-n2cncc3ccnc2-3)nc(-c2noc3c2CCC[C@@]32CCCc3sc(N)c(C#N)c32)n1)[C@@H]1CCCN1C` [II-105] gave an IC50 on KRAS (G12V)::SOS1 of 2 nM.
Turning to `C[C@H](Oc1cc(N2CCNC2=O)nc(-c2noc3c2CCC[C@@]32CCCc3sc(N)c(C#N)c32)n1)[C@@H]1CCCN1C` [II-64], the IC50 in the assay with A375 cells is 2580 nM.
For the molecule `C[C@H](Oc1cc(N2CC[C@H](N(C)C)C2)nc(-c2noc3c2CCC[C@@]32CCCc3sc(N)c(C#N)c32)n1)[C@@H]1CCCN1C` [II-49], the IC50 at KRAS (G13D)::SOS1 stood at 173 nM; at KRAS (G12V)::SOS1, 54 nM.
`C[C@H](Oc1cc(-c2ccc(N)nc2)nc(-c2noc3c2CCC[C@@]32CCCc3sc(N)c(C#N)c32)n1)[C@@H]1CCCN1C` [II-101] gave a concentration for half-maximal inhibition (IC50) on KRAS (G12V)::SOS1 of 2 nM.
Take `CO[C@@H]1C[C@@H]([C@H](C)Oc2cc(-c3ccn(C)n3)nc(-c3noc4c3CCC[C@@]43CCCc4sc(N)c(C#N)c43)n2)N(C)C1` [II-91]: the IC50 with A375 cells was found to be 1140 nM.
Turning to `C[C@H](Oc1cc(N2CCNC3(CC3)C2)nc(-c2noc3c2CCC[C@@]32CCCc3sc(N)c(C#N)c32)n1)[C@@H]1CCCN1C` [II-54], the 50% inhibitory concentration (IC50) at KRAS (G13D)::SOS1 was determined as 33 nM; on KRAS (G12V)::SOS1, 9 nM.
In the case of `C[C@H](Oc1cc(-n2ccnc2)nc(-c2noc3c2CCC[C@@]32CCCc3sc(N)c(C#N)c32)n1)[C@@H]1C[C@@H](F)CN1C` [II-120], on KRAS (G12V)::SOS1, the IC50 was found to be 5 nM.
The same measure, in the same setting: for `C[C@H](Oc1cc(-c2ccncc2)nc(-c2noc3c2CCC[C@@]32CCCc3sc(N)c(C#N)c32)n1)[C@@H]1CCCN1C` [II-78] the value was 3 nM.
In the assay on A375 cells, `C[C@H](Oc1cc(N2CCN(C)C2=O)nc(-c2noc3c2CCC[C@@]32CCCc3sc(N)c(C#N)c32)n1)[C@@H]1CCCN1C` [II-75] returned an IC50 of 2540 nM.
Take `C[C@H](Oc1cc(-n2cncn2)nc(-c2noc3c2CCC[C@@]32CCCc3sc(N)c(C#N)c32)n1)[C@@H]1CCCN1C` [II-70]: on KRAS (G13D)::SOS1, the IC50 came out at 19 nM.
`C[C@H](Oc1cc(N2CCN(C)CC2)nc(-c2noc3c2CCC[C@@]32CCCc3sc(N)c(C#N)c32)n1)[C@@H]1CCCN1C` [II-55]: the IC50 worked out at 47 nM at KRAS (G13D)::SOS1 and 11 nM on KRAS (G12V)::SOS1.
Turning to `C[C@H](Oc1cc([C@@H]2CCOC2)nc(-c2noc3c2CCC[C@@]32CCCc3sc(N)c(C#N)c32)n1)[C@@H]1CCCN1C` [II-94], the values for the IC50 on KRAS (G13D)::SOS1, at KRAS (G12V)::SOS1 and in the assay with A375 cells were 9 nM, 2 nM and over 3000 nM, respectively.
Consider `C[C@H](Oc1cc(-n2ccc(-c3ccccn3)n2)nc(-c2noc3c2CCC[C@@]32CCCc3sc(N)c(C#N)c32)n1)[C@@H]1CCCN1C` [II-119], for which the IC50 at KRAS (G12V)::SOS1 was determined as 2 nM.
For `CNC(=O)c1cn(-c2cc(O[C@@H](C)[C@@H]3CCCN3C)nc(-c3noc4c3CCC[C@@]43CCCc4sc(N)c(C#N)c43)n2)nn1` [II-122], the IC50 in the assay with A375 cells was 761 nM.

For orientation: IC50 means the point on the concentration scale where inhibition reaches its midpoint. High values mean a need for much substance, low ones inhibition by little substance.
